Assay results: patent US11771729B2, “Maca extract and use thereof” (KAOHSIUNG MEDICAL UNIVERSITY, priority 2021, dated 2023)
Marks after values point to notes of the source that are not given here.

How the values were obtained:
[1] = tested on: human umbilical vein endothelial cells (HUVECs); test: Pro-angiogenic test: HUVEC cell growth; format: cell-based; conditions: VEGF 20 ng/mL, positive control, mean±SEM
Method: (§1) Endothelial cell culture: Isolation and culture of human CD34-positive endothelial progenitor cells (EPC) were performed using conventional methods (Chen et al., 2018); human umbilical vein endothelial cells (HUVECs) were purchased from Promo Cell (Heidelberg, Germany); and EPCs and HUVECs were maintained in MV2 medium according to a known protocol (Chung et al., 2013).
(§2) Measurement of cell growth: EPCs and HUVECs were cultured overnight at a density of 5×10^3 cells per well in a 96-well plate, and then, in the presence of the test specimen (that is, maca extract), the original medium was replaced with MV2 minimal medium and incubated for 48 hours. The measurements on EPC cell growth were as described in Yang et al., 2019.
(§3) The results are shown in Table 1 as below, in which corresponding results are indicated as mean±SEM (the test was repeated 3 times as a whole), wherein, compared to the control group (DSMO), * denotes p<0.05, ** denotes p<0.01, *** denotes p<0.001; and - denotes being untested.

[2] = tested on: human CD34-positive endothelial progenitor cells (EPC); test: Pro-angiogenic test: EPC cell growth; format: cell-based; conditions: mean±SEM
Method: as §1, §2, §3

human neutrophil [3] = test: Anti-neutrophil inflammation test: elastase release; format: cell-based; conditions: isolated compounds (10 μM) and positive controls 10 μM, fMLF/CB-activated neutrophils, mean±SEM
Method: (§4) Isolation of human neutrophil: According to the standard scheme of […] sedimentation, neutrophils was obtained from peripheral blood, and then, the neutrophils were purified by centrifugation and erythrocyte hypotonic degradation in a Ficoll-Hypaque gradient; and then, it was confirmed by the trypan blue exclusion test that the purified neutrophils contained more than 98% live cells, and the purified neutrophils were suspended in HBSS without calcium at 4° C. (Yang et al., 2013) prior to the test.
The elastase release was used to measure degranulation of azurophilic granules in activated neutrophils (Yang et al., 2013); and the measurement was performed using methoxysuccinyl-Ala-Ala-Pro-Val-p-nitroaniline as an elastase matrix. At 37° C., neutrophils (6×10^5 cells/mL) were added to a mixture of matrix (100 μmol/L) and CaCl2 (1 mmol/L), and treated with the test specimens having different concentrations (that is, maca extract) or DMSO (0.1% as control) for 5 minutes, and then the cells were stimulated by using fMLF (100 nM)/CB (0.5 μg/mL), and changes in absorbance at the 405 nm wavelength were continuously monitored to measure the release of elastase, in which genistein and LY294002 were used as positive controls. The corresponding results are indicated as mean±SEM (the test was repeated 3 or 4 times), in which * denotes p<0.05, ** denotes p<0.01, *** denotes p<0.001; and - denotes being untested.

human neutrophil [4] = test: Anti-neutrophil inflammation test: superoxide anion generation; format: cell-based; conditions: isolated compounds (10 μM) and positive controls 10 μM, fMLF/CB-activated neutrophils, mean±SEM
Method: as §4
The level of superoxide anion generation by neutrophil activation was measured and determined based on the ferrocytochrome c reduction method according to Yang et al., 2013. In other words, human neutrophil cells (6×10^5 cells/mL) were mixed with 0.6 mg/mL of ferrocytochrome c and 1 mmol/L of CaCl at 37° C., and then the cells were treated with the test specimens having different concentrations (that is, maca extract) or DMSO (0.1% as control) for 5 minutes; thereafter, 10 minutes before activation with 100 nM of fMLF, the cells were incubated with cytochalasin B (1 μg/mL) for 3 minutes, changes in absorbance according to the decrease in ferrocytochrome c at a wavelength of […] with continuous stirring were continuously monitored using a spectrophotometer, and reactions were calculated with and without superoxide dismutase (SOD, 100 U/mL) with dividing by the extinction coefficient of the decreased ferrocytochrome c (21.1 mM^−1 cm^−1) reduction, thereby obtaining the difference value.

RBL-2H3 cells [5] = tested on: RBL-2H3 cells
Method: Cells were cultured using DMEM medium supplemented with 10% FBS, and additional 100 U/mL penicillin and 100 μg/mL streptomycin. The cells were cultured in 10 cm Petri dishes in a 5% CO2 incubator at 37° C., the cells were secondary cultured in 80% confluent trypsin, and then seeded on culture plates at a density of 2×10^5 cells/mL for secretion measurement.
Measurement on cell viability: RBL-2H3 cells were seeded in a 96-well plate at a concentration of 2×10^4 cells/well overnight, specimens having different concentrations (that is, maca extract, dissolved in DMSO) or untreated controls (1% DMSO in Tyrode buffer; 135 mM NaCl, 5 mM KCl, 1.8 mM CaCl, 1.0 mM MgCl2, 5.6 mM glucose, 20 mM HEPES and 1 mg/ml BSA, pH 7.4) were used to treat the cells, the media was removed from the wells after incubation at 37° C., 5% CO2, and an MTT solution (5 mg/mL) stock solution was diluted 1:10 in the medium and then added to the wells (100 μL per well); Thereafter, the cells were incubated at 37° C., 5% CO2 for 1 hours, the medium was removed, the formed Formazan crystals (which can be formed only in normal healthy cells) were dissolved in 100 μL DMSO, and the absorbance at 574 nm wavelength was measured using a microplate reader in which the plates were gently shaked before the measurement. Cell viability values for the specimens were calculated and indicated as a percentage (%) of the control groups (untreated cells).

RBL-2H3 cells [6] = test: Anti-allergy test: A23187-induced β-hexosaminidase release; format: cell-based
Method: (§5) Equivalently divided supernatants (50 μL) of control wells and experimental wells were incubated with an equal volume (50 μL) of […] p-NAG prepared in 0.1 M citrate buffer (pH 4.5), in which the buffer is formed as a matrix of released β-hexosaminidase; the reaction, after 1 hour incubation at 37° C., was stopped by adding 100 μL of termination buffer (0.1M Na2/NaHCO3, pH 10.0), and then, the absorbance at a wavelength of 405 nm was measured with a microplate reader. The percentage of inhibiting RBL-2H3 cells from releasing β-hexosaminidase was calculated as the percentage of control (untreated stimulated cells), and azelastine (20 μM) was used as a positive control. The test results are shown in Tables 4 to 6 below, and the corresponding results are indicated as mean±SEM (the test was repeated 3 times), wherein * denotes p<0.05, ** denotes p<0.01, *** denotes p<0.001; - denotes being untested; and N/A denotes that the specimen forms mycelium added to the medium, and accordingly, the results cannot be proven.

RBL-2H3 cells [7] = test: Anti-allergy test: antigen-induced β-hexosaminidase release; format: cell-based
Method: as §5

Row | Molecule | Cell growth rate (%) HUVEC [1] | Cell growth rate (%) EPC ([2]; VEGF 20 ng/mL, positive control) | Inhibition rate (%) Elastase release (human neutrophil [3]) [%] | Inhibition rate (%) Superoxide anion generation (human neutrophil [4]) [%] | Viability of RBL-2H3 cells at 200 μg/ml (RBL-2H3 cells [5]) [%] | Percentage of inhibiting A23187-induced β-hexosaminidase release (%) 10 μM/mL (RBL-2H3 cells [6]; 10 μM/mL) [%] | Percentage of inhibiting A23187-induced β-hexosaminidase release (%) 100 μM/mL (RBL-2H3 cells [6]; 100 μM/mL) [%] | Percentage of inhibiting A23187-induced β-hexosaminidase release (%) 500 μM/mL (RBL-2H3 cells [6]; 500 μM/mL) [%***] | A23187-induced β-hexosaminidase release Inhibition rate (%) (RBL-2H3 cells [6]; Table 4, isolated compounds, concentration not given (values equal 100 μM column of Table 6)) | Cell growth rate (%) EPC ([2]; 50 μM of each isolated compound, 48 hours) [%] | Percentage of inhibiting antigen-induced β-hexosaminidase release (%) 10 μM/mL (RBL-2H3 cells [7]; 10 μM/mL) [%] | Percentage of inhibiting antigen-induced β-hexosaminidase release (%) 100 μM/mL (RBL-2H3 cells [7]; 100 μM/mL) [%] | Percentage of inhibiting antigen-induced β-hexosaminidase release (%) 500 μM/mL (RBL-2H3 cells [7]; 500 μM/mL) [%] | Antigen-induced β-hexosaminidase release Inhibition rate (%) (RBL-2H3 cells [7]; Table 4, isolated compounds, concentration not given)
1 | VEGF | 122 ± 2*** % | 128 ± 2*** % | – | – | – | – | – | – | – | – | – | – | – | –
2 | O=Cc1cc[n+]([O-])cc1Cc1ccccc1 [Compound 7, 3-(benzyl)-1-(hydroxy)-4-aldehyde pyridine] | – | – | 2.48 ± 3.05 | 10.94 ± 1.84 | 94.7 | 2.0 ± 1.6 | 6.0 ± 0.8 | 18.0 ± 3.4 | 6.0 ± 0.8 | 105 ± 3 | 11.7 ± 2.6 | 8.0 ± 1.2 | 0.0 ± 0.0 | 8.0 ± 1.2
